Assay results: US20240207293A1, “COMPOSITION FOR IMPROVING INTESTINAL MICROBIAL POPULATION COMPRISING GALACTOSE” (Quorum Bio Co., Ltd., priority 2021, published 2024)

How the values were obtained:
Assay type in all cases: in vivo, C57BL/6J mouse
[1] = test system: Lactobacillus; test: Metagenome analysis of feces in high-fat diet induced obesity model: proportion of Lactobacillus; conditions: for Lactobacillus Average (%): feces after 8 weeks
Procedure: (§1) A 5-week-old male C57BL/6J mouse prepared in Example 1.2 were used after a 2-week acclimatization process, and then adjustment of body weight for each group. From the time the mouse reached 7 weeks of age, obesity was induced with a high fat diet (HFD). The mice were fed ad libitum with a general feed or a high-fat diet feed for 16 weeks, and PBS and galactose were orally administered daily to each group. The input amount and the remaining amount of the feed were measured twice a week to calculate daily caloric intake, and the body weight was measured once a week at a designated time. For microbiome analysis, feces were collected as shown in FIG. 1 and analysis was requested to Macrogen Inc. Feces were collected after selecting five mice whose body weight was closest to the average. The number of animals in each group was set to 8. After 8 weeks of the experiment, metagenome analysis was performed by collecting feces from the 3rd group (HFD-PBS), the 5th group (HFD-Gal 100 mg/kg), and the 6th group (HFD-Gal 50 mg/kg). The results of the metagenomic analysis were obtained by requesting metagenome sequencing to Macrogen Co., Ltd. For the experimental results, significance was tested using the TTEST method, and when the P value was less than 0.05, that value was determined to be significant ((*)<0.05, (**)<0.01, (***)<0.001).

[2] = test system: Akkermansia; test: Metagenome analysis of feces in high-fat diet induced obesity model: proportion of Akkermansia; conditions: for Akkermansia Average (%): feces after 8 weeks
Procedure: as §1

[3] = Measurement of body weight (weight gain) in mice on normal or high-fat diet; conditions: 16 weeks, oral daily, n=8
Procedure: A 5-week-old male C57BL/6J mouse prepared in Example 1.2 were used after a 2-week acclimatization process, and then adjustment of body weight for each group. From the time the mouse reached 7 weeks of age, obesity was induced with a high fat diet (HFD). The mice were fed ad libitum with a general feed or a high-fat diet feed for 16 weeks, and PBS and galactose were orally administered daily to each group. The input amount and the remaining amount of the feed were measured twice a week to calculate daily caloric intake, and the body weight was measured once a week at a designated time. During the experimental period (16 weeks) designed in Example 1.3, the body weight of the experimental animals were measured at a predetermined time every week before administration of galactose or PBS, and body weight change (weight gain) and survival rate were measured (allowed to euthanize if the body weight decreases to less than 20% of the initial body weight). The weight gain was calculated by setting the body weight (initial body weight) of the experimental animal at 7 weeks of age as 100% and then calculating the body weight measured at each time point as a relative value to the initial body weight.

[4] = Intraperitoneal glucose tolerance test
Procedure: The experimental animals were kept hungry (12-hour fasting) from 9:00 p.m. the day before the test to 9:00 a.m. the day of the test, and then a blood glucose test was performed. To keep a hungry condition, feed and straw litter were removed to induce fasting. A 10% (w/v) glucose (in PBS) solution sterilized by 0.2 μm filtration was prepared. After intraperitoneally administering 2 mg glucose/g, volume=body weight*20 (μl) for each individual, the mice were again put in the cage, and blood glucose levels were measured every 0, 30, 60, 90, and 120 minutes. The blood glucose tests were performed by collecting blood from the caudal vein. The intraperitoneal glucose tolerance test was performed 13 weeks after inducing obesity with a high-fat diet.

[5] = test system: Alistipes; test: Metagenome analysis of feces in high-fat diet induced obesity model: proportion of Alistipes; conditions: for Alistipes Average (%): feces after 8 weeks
Procedure: as §1

[6] = group 5: high fat diet, galactose 100 mg/kg oral daily
[7] = group 6: high fat diet, galactose 50 mg/kg oral daily
[8] = high fat diet, galactose-administered group vs PBS control

SMILES: O=C[C@H](O)[C@@H](O)[C@@H](O)[C@H](O)CO [Galactose, galactose]
- Lactobacillus Average (%) [1, 6]: 3.8375%
- Lactobacillus Average (%) [1, 7]: 2.17%
- proportion of Lactobacillus as compared with a control group [1, 8]: increased
- Akkermansia Average (%) [2, 6]: 1.365%
- Akkermansia Average (%) [2, 7]: 0.135%
- proportion of Akkermansia as compared with a control group [2, 8]: increased
- weight gain vs PBS-administered group ([3]; general diet group): no significant difference
- weight gain vs PBS-administered group ([3]; high-fat diet feed group): significantly reduced
- blood sugar levels at 120 minutes ([4]; high-fat diet group, measured at 120 minutes after i.p. glucose): comparable to those in the normal diet group
- blood glucose level vs control group (PBS-administered) ([4]; high-fat diet intake group (HD), 13 weeks after inducing obesity, 2 mg glucose/g i.p.): significantly decreased
- blood glucose by galactose administration ([4]; normal diet intake group (ND), 2 mg glucose/g i.p., 12-hour fasting): decreased
- Alistipes Average (%) [5, 6]: 1.0275%
- Alistipes Average (%) [5, 7]: 1.9675%
- proportion of Alistipes as compared with a control group [5, 8]: increased
